This is an account of results in patent publication US20090325933A1, “Pyrimidinone Derivatives and Their Use as a Drug” (Ipsen Pharma S.A.S., priority 2006, published 2009).

Where two headings read alike, the source gives them in different places.

The target in the test is T1, human CB2 receptors (Homo sapiens, UniProt P34972).
T1 construct: expressed in transfected cells; membrane preparations
Description: Affinity for human CB2 cannabinoid receptors: inhibition of [3H]-CP55940 binding to transfected CHO-K1 cell membranes. Conditions: inhibition constant value range, [3H]-CP55940 1 nM, Cheng-Prusoff. On the procedure:
The affinity of the compounds of the present invention for the different sub-types of cannabinoid receptors was measured according to procedures analogous to those described hereafter for the human CB2 receptor.
Study of the Affinity of the Compounds for the Human CB2 Cannabinoid Receptors:
The affinity of the compounds of the invention for the human CB2 receptors is determined by measuring the inhibition of the binding of [^3H]-CP55940 to transfected CHO-K1 cell membrane preparations.
The CHO-K1 cells expressing the human CB2 receptors in stable fashion are cultured in an RPMI 1640 medium containing 10% foetal calf serum, 2 mM of glutamine, 100 U/ml of penicillin, 0.1 mg/ml of streptomycin and 0.5 mg/ml of G418. The cells are collected with 0.5 mM of EDTA and centrifuged at 500 g for 5 minutes at 4° C. The pellet is re-suspended in phosphate buffered saline medium (PBS) and centrifuged at 500 g for 5 minutes at 4° C. The pellet is re-suspended in a Tris 50 mM buffer medium at pH 7.4 and centrifuged at 500 g for 5 minutes at 4° C. The cells are lysed by sonication and centrifuged at 39,000 g for 10 minutes at 4° C. The pellet is re-suspended in the Tris 50 mM buffer medium at pH 7.4 and centrifuged at 50,000 g for 10 minutes at 4° C. The membranes obtained in this last pellet are stored at −80° C.
Measurement of the competitive inhibition of the binding of the [^3H]-CP55940 to the CB2 receptors is carried out in duplicate using 96-well polypropylene plates. The cell membranes (10 μg of proteins/well) are incubated with the [^3H]-CP55940 (1 nM) for 60 minutes at 25° C. in a Tris-HCl 50 mM buffer medium, pH 7.4, comprising 0.1% bovine serum albumin (BSA), 5 mM of MgCl2, and 50 μg/ml of bacitracin.
The bound [^3H]-CP55940 is separated from the free [^3H]-CP55940 by filtration through GF/C glass fibre filter plates (Unifilter, Packard) pre-impregnated with 0.1% polyethylenimine (P.E.I.), using a Filtermate 196 (Packard). The filters are washed with Tris-HCl 50 mM buffer, pH 7.4 at 0-4° C. and the radioactivity present is determined using a counter (Packard Top Count).
The specific binding is obtained by subtracting the non-specific binding (determined in the presence of 0.1 μM of WIN55212-2 from the total binding). The data are analyzed by computer-assisted non-linear regression (MDL). For each test, a Cheng-Prusoff correction is made in order to convert the IC50 to the inhibition constant, Ki.
where [L] is the concentration of the radioligand used in the test and Kd is the radioligand equilibrium dissociation constant.

T1 sequence (P34972 whole entry): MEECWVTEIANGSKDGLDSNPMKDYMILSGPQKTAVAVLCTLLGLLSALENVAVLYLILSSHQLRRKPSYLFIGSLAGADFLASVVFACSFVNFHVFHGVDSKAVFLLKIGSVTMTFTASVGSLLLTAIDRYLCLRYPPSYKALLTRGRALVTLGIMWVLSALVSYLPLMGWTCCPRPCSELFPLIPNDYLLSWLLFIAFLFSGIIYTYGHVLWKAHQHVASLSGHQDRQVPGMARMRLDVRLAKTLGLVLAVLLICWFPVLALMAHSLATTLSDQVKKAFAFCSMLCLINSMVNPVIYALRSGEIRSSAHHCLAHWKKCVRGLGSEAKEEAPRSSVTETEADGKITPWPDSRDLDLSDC

By Ki is commonly meant the equilibrium dissociation constant of an inhibitor or competing ligand from its target. For the compound `Cc1cc2nc(-c3ccc(-c4ccccc4)cc3)n(CCN3CCCCC3)c(=O)c2s1` [Example 61], the Ki (read-out: Ki < 0.5 μM) was < 0.5 µM and the Ki (read-out: Ki < 5 μM) was < 5 µM.

Regarding `Cc1ccc(-c2ccc(-c3nc4ccsc4c(=O)n3CCN3CCCCC3)cc2)cc1C` [Example 60], the Ki runs as follows: (read-out: Ki < 0.5 μM) < 0.5 µM; (read-out: Ki < 5 μM) < 5 µM.

For `Cc1cc(C)cc(-c2ccc(-c3nc4ccsc4c(=O)n3CCN3CCCCC3)cc2)c1` [Example 80], the Ki is, setting by setting: (read-out: Ki < 0.5 μM) < 0.5 µM; (read-out: Ki < 5 μM) < 5 µM. The matching figures for `O=c1c2sccc2nc(-c2ccc(-c3cccs3)cc2)n1CCN1CCOCC1` [Example 40]: < 0.5 µM and < 5 µM. The matching figures for `CC1CCCN(CCn2c(-c3ccc(-c4ccccc4)cc3)nc3ccsc3c2=O)C1` (centres unmarked) [Example 42]: < 0.5 µM and < 5 µM. The matching figures for `O=c1c2sccc2nc(-c2ccc(-c3cccs3)cc2)n1CCN1CCCCC1` [Example 39]: < 0.5 µM and < 5 µM.

Consider `Cc1cc2nc(-c3ccc(-c4ccccc4C)cc3)n(CCN3CCCCC3)c(=O)c2s1` [Example 68], for which the inhibitory constant (Ki) is, setting by setting: (read-out: Ki < 0.5 μM) < 0.5 µM; (read-out: Ki < 5 μM) < 5 µM.

As to `O=c1c2sccc2nc(-c2ccc(-c3ccccc3)cc2)n1CCN1CCOCC1` [Example 27], the inhibition constant (Ki) (read-out: Ki < 0.5 μM) is < 0.5 µM and the Ki (read-out: Ki < 5 μM) was < 5 µM. As for `CC(C)(C)c1cc2nc(-c3ccc(-c4ccccc4)cc3)n(CCN3CCCCC3)c(=O)c2s1` [Example 57], under “read-out: Ki < 5 μM”, the inhibitory constant (Ki) is < 5 µM.

Regarding `O=c1c2sccc2nc(-c2ccc(-c3cccc(C(F)(F)F)c3)cc2)n1CCN1CCCCC1` [Example 74], the Ki (read-out: Ki < 0.5 μM) was < 0.5 µM and the Ki (read-out: Ki < 5 μM) was < 5 µM. The corresponding values for `O=c1c2sccc2nc(-c2ccc(-c3ccc(F)cc3)cc2)n1CCN1CCCCC1` [Example 73] are < 0.5 µM and < 5 µM. As to `Cc1ccccc1CCn1c(-c2ccc(-c3ccccc3)cc2)nc2ccsc2c1=O` [Example 8], the Ki (read-out: Ki < 5 μM) is < 5 µM. As to `O=c1c2sccc2nc(-c2ccc(-c3ccccc3F)cc2)n1CCN1CCCCC1` [Example 69], the inhibition constant (Ki) is < 0.5 µM (read-out: Ki < 0.5 μM) and < 5 µM (read-out: Ki < 5 μM). The matching figures for `O=c1c2sccc2nc(-c2ccc(-c3ccccc3Cl)cc2)n1CCN1CCCCC1` [Example 64]: < 0.5 µM and < 5 µM.

With `O=c1c2sccc2nc(-c2ccc(-c3ccccc3)cc2)n1CCc1cccs1` [Example 3], the inhibitory constant (Ki) (read-out: Ki < 5 μM) was < 5 µM. Still for that read-out and setting: the same measure for `Cc1ccc(CCn2c(-c3ccc(-c4ccccc4)cc3)nc3ccsc3c2=O)cc1C` [Example 9]: < 5 µM.

Regarding `O=c1c2sccc2nc(-c2ccc(C3CCCCC3)cc2)n1CCC1CCCCC1` [Example 16], the Ki (read-out: Ki < 0.5 μM) is < 0.5 µM and the Ki (read-out: Ki < 5 μM) was < 5 µM. The corresponding values for `O=c1c2sccc2nc(-c2ccc(-c3c(F)cccc3F)cc2)n1CCN1CCCCC1` [Example 82] are < 0.5 µM and < 5 µM. The matching figures for `Cc1ccccc1-c1ccc(-c2nc3c(C)c(C)sc3c(=O)n2CCN2CCCCC2)cc1` [Example 75]: < 0.5 µM and < 5 µM.

As to `Cc1cc2nc(-c3ccc(-c4cccc(C(F)(F)F)c4)cc3)n(CCN3CCCCC3)c(=O)c2s1` [Example 87], the Ki (read-out: Ki < 0.5 μM) was < 0.5 µM and the Ki (read-out: Ki < 5 μM) is < 5 µM. Regarding `O=c1c2sccc2nc(-c2ccc(-c3ccccc3)cc2)n1CCC1C[C@H]2CC[C@@H]1C2` (some centres unmarked) [Example 59], the inhibitory constant (Ki) (read-out: Ki < 5 μM) was < 5 µM. For `O=c1c2sc3ccccc3c2nc(-c2ccc(-c3ccccc3)cc2)n1CCC1CCOCC1` [Example 22], the inhibition constant (Ki) (read-out: Ki < 5 μM) was < 5 µM.

Consider `O=C(c1ccccc1)c1ccc(-c2nc3ccsc3c(=O)n2CCN2CCOCC2)cc1` [Example 30], for which the Ki reads like this: (read-out: Ki < 0.5 μM) < 0.5 µM; (read-out: Ki < 5 μM) < 5 µM. The matching figures for `O=c1c2sccc2nc(-c2ccc(-c3cccs3)cc2)n1CCc1ccccc1` [Example 20]: < 0.5 µM and < 5 µM. The matching figures for `O=c1c2sccc2nc(-c2ccc(-c3ccccc3)cc2)n1CCN1CCCCCC1` [Example 34]: < 0.5 µM and < 5 µM. `O=c1c2sccc2nc(-c2ccc(-c3cccs3)cc2)n1CCC1CCOCC1` [Example 19]: the Ki (read-out: Ki < 5 μM) is < 5 µM. On the same count and under the same terms, then `CC(C)(C)c1ccc(-c2ccc(-c3nc4ccsc4c(=O)n3CCN3CCCCC3)cc2)cc1` [Example 41], with < 5 µM. For the compound `O=c1c2sccc2nc(-c2ccc(-c3cccc(F)c3)cc2)n1CCN1CCCCC1` [Example 63], the inhibition constant Ki is < 0.5 µM (read-out: Ki < 0.5 μM) and < 5 µM (read-out: Ki < 5 μM). Take `Cc1cc2nc(-c3ccc(-c4cccc(Cl)c4)cc3)n(CCN3CCCCC3)c(=O)c2s1` [Example 86]: the Ki (read-out: Ki < 0.5 μM) was < 0.5 µM and the inhibition constant (Ki) (read-out: Ki < 5 μM) is < 5 µM. The corresponding values for `Cc1cc2nc(-c3ccc(-c4cccc(F)c4)cc3)n(CCN3CCCCC3)c(=O)c2s1` [Example 85] are < 0.5 µM and < 5 µM. With `O=c1c2sccc2nc(C2CCC(c3ccccc3)CC2)n1CCN1CCCCC1` (centres unmarked) [Example 53], the Ki by setting is: (read-out: Ki < 0.5 μM) < 0.5 µM; (read-out: Ki < 5 μM) < 5 µM. The matching figures for `O=c1c2sccc2nc(-c2ccc(-c3ccccc3C(F)(F)F)cc2)n1CCN1CCCCC1` [Example 66]: < 0.5 µM and < 5 µM. The corresponding values for `O=c1c2sccc2nc(-c2ccc(-c3ccccc3)cc2)n1CCc1ccc(Cl)cc1Cl` [Example 6] are < 0.5 µM and < 5 µM. The corresponding values for `Cc1cccc(C)c1-c1ccc(-c2nc3ccsc3c(=O)n2CCN2CCCCC2)cc1` [Example 81] are < 0.5 µM and < 5 µM. `COc1ccccc1-c1ccc(-c2nc3ccsc3c(=O)n2CCN2CCCCC2)cc1` [Example 76]: the Ki (read-out: Ki < 0.5 μM) is < 0.5 µM and the Ki (read-out: Ki < 5 μM) is < 5 µM. The corresponding values for `O=c1c2sccc2nc(-c2ccc3cc4ccccc4cc3c2)n1CCN1CCCCC1` [Example 50] are < 0.5 µM and < 5 µM.

On to `O=C(c1ccccc1)c1ccc(-c2nc3ccsc3c(=O)n2CCN2CCCCC2)cc1` [Example 29], for which the Ki is, setting by setting: (read-out: Ki < 0.5 μM) < 0.5 µM; (read-out: Ki < 5 μM) < 5 µM. The corresponding values for `Cc1ccc(-c2ccc(-c3nc4ccsc4c(=O)n3CCN3CCCCC3)cc2)cc1` [Example 65] are < 0.5 µM and < 5 µM.

Consider `Cc1sc2c(=O)n(CCN3CCCCC3)c(-c3ccc(-c4ccccc4)cc3)nc2c1C` [Example 55], for which the inhibition constant Ki (read-out: Ki < 0.5 μM) is < 0.5 µM and the Ki (read-out: Ki < 5 μM) is < 5 µM. The matching figures for `O=c1c2sccc2nc(-c2ccc(C3CCCCC3)cc2)n1CCc1ccccc1` [Example 18]: < 0.5 µM and < 5 µM.

Take `O=c1c2sccc2nc(-c2ccc(C3CCCCC3)cc2)n1CCN1CCCCC1` [Example 36]: the inhibition constant Ki was < 0.5 µM (read-out: Ki < 0.5 μM) and < 5 µM (read-out: Ki < 5 μM).

In the case of `COc1cccc(-c2ccc(-c3nc4ccsc4c(=O)n3CCN3CCCCC3)cc2)c1` [Example 89], the Ki (read-out: Ki < 0.5 μM) is < 0.5 µM and the inhibition constant Ki (read-out: Ki < 5 μM) is < 5 µM.

Consider `O=c1c2sccc2nc(-c2ccc(-c3ccccc3)c(F)c2)n1CCN1CCCCC1` [Example 67], for which the Ki by setting is: (read-out: Ki < 0.5 μM) < 0.5 µM; (read-out: Ki < 5 μM) < 5 µM. The matching figures for `O=c1c2sc(-c3ccccc3)cc2nc(-c2ccc(-c3ccccc3)cc2)n1CCN1CCCCC1` [Example 58]: < 0.5 µM and < 5 µM.

On to `Cc1cccc(-c2ccc(-c3nc4cc(C)sc4c(=O)n3CCN3CCCCC3)cc2)c1` [Example 84], for which the Ki by setting is: (read-out: Ki < 0.5 μM) < 0.5 µM; (read-out: Ki < 5 μM) < 5 µM.

On to `Cc1cccc(-c2ccc(-c3nc4c(C)c(C)sc4c(=O)n3CCN3CCCCC3)cc2)c1` [Example 70], for which the inhibitory constant (Ki) reads like this: (read-out: Ki < 0.5 μM) < 0.5 µM; (read-out: Ki < 5 μM) < 5 µM.

Regarding `O=c1c2sccc2nc(-c2ccc(C3CCCCC3)cc2)n1CCC1CCOCC1` [Example 17], the inhibition constant (Ki) is < 0.5 µM (read-out: Ki < 0.5 μM) and < 5 µM (read-out: Ki < 5 μM).

Turning to `O=c1c2sccc2nc(-c2ccc(C3CCCCC3)cc2)n1CCN1CCOCC1` [Example 37], the Ki was < 0.5 µM (read-out: Ki < 0.5 μM) and < 5 µM (read-out: Ki < 5 μM). The corresponding values for `Cc1cc2nc(-c3ccc(-c4c(Cl)cccc4Cl)cc3)n(CCN3CCCCC3)c(=O)c2s1` [Example 90] are < 0.5 µM and < 5 µM. The corresponding values for `COc1cccc(-c2ccc(-c3nc4cc(C)sc4c(=O)n3CCN3CCCCC3)cc2)c1` [Example 88] are < 0.5 µM and < 5 µM.
